21 molecules from patent US20070043049A1, “Substituted heterocyclic diarylamine analogues” (Neurogen Corporation, priority 2003, published 2007) can be followed below.

Bounds are passed on as bounds.

This test deals with T1, human capsaicin receptor (Homo sapiens, UniProt Q8NER1).
T1 construct: pBK-CMV expression construct encoding the full length human capsaicin receptor; expressed in transfected cells
The test can be described thus: Calcium mobilization assay, determination of antagonist activity (Example 6). Format: cell-based. The note with it: 50% decrease in fluorescence response of cells expressing human capsaicin receptor exposed to capsaicin. As to the method:
A cDNA encoding full length human capsaicin receptor (SEQ ID NO:1, 2 or 3 of U.S. Pat. No. 6,482,611) was subcloned in the plasmid pBK-CMV (Stratagene, La Jolla, Calif.) for recombinant expression in mammalian cells.
Human embryonic kidney (HEK293) cells were transfected with the pBK-CMV expression construct encoding the full length human capsaicin receptor using standard methods. The transfected cells were selected for two weeks in media containing G418 (400 μg/ml) to obtain a pool of stably transfected cells. Independent clones were isolated from this pool by limiting dilution to obtain clonal stable cell lines for use in subsequent experiments.
Cells transfected with expression plasmids (as described in Example 4) and thereby expressing human capsaicin receptor are seeded and grown to 70-90% confluency in FALCON black-walled, clear-bottomed 96-well plates (#3904, BECTON-DICKINSON, Franklin Lakes, N.J.). The culture medium is emptied from the 96 well plates and FLUO-3 AM calcium sensitive dye (Molecular Probes, Eugene, Oreg.) is added to each well (dye solution: 1 mg FLUO-3 AM, 440 μL DMSO and 440 μl 20% pluronic acid in DMSO, diluted 1:250 in Krebs-Ringer HEPES (KRH) buffer (25 mM HEPES, 5 mM KCl, 0.96 mM NaH2PO4, 1 mM MgSO4, 2 mM CaCl2, 5 mM glucose, 1 mM probenecid, pH 7.4), 50 μl diluted solution per well). Plates are covered with aluminum foil and incubated at 37° C. for 1-2 hours in an environment containing 5% CO2. After the incubation, the dye is emptied from the plates, and the cells are washed once with KRH buffer, and resuspended in KRH buffer.
To measure the ability of a test compound to agonize or antagonize a calcium mobilization response in cells expressing capsaicin receptors to capsaicin or other vanilloid agonist, the EC50 of the agonist capsaicin is first determined. An additional 20 μl of KRH buffer and 1 μl DMSO is added to each well of cells, prepared as described above. 100 μl capsaicin in KRH buffer is automatically transferred by the FLIPR instrument to each well. Capsaicin-induced calcium mobilization is monitored using either FLUOROSKAN ASCENT (Labsystems; Franklin, Mass.) or FLIPR (fluorometric imaging plate reader system; Molecular Devices, Sunnyvale, Calif.) instruments. Data obtained between 30 and 60 seconds after agonist application are used to generate an 8-point concentration response curve, with final capsaicin concentrations of 1 nM to 3 μM. KALEIDAGRAPH software (Synergy Software, Reading, Pa.) is used to fit the data to the equation: y=a*(1/(1+(b/x)^c)) to determine the 50% excitatory concentration (EC50) for the response. In this equation, y is the maximum fluorescence signal, x is the concentration of the agonist or antagonist (in this case, capsaicin), a is the Emax, b corresponds to the EC50 value and c is the Hill coefficient. Determination of Agonist Activity
Test compounds are dissolved in DMSO, diluted in 20 μl KRH buffer so that the final concentration of test compounds in the assay well is between 1 μM and 5 μM, and added to cells prepared as described above. The 96 well plates containing prepared cells and test compounds are incubated in the dark, at room temperature for 0.5 to 6 hours. It is important that the incubation not continue beyond 6 hours. Just prior to determining the fluorescence response, 100 μl capsaicin in KRH buffer at twice the EC50 concentration determined as described above is automatically added by the FLIPR instrument to each well of the 96 well plate for a final sample volume of 200 μl and a final capsaicin concentration equal to the EC50. The final concentration of test compounds in the assay wells is between 1 μM and […]. […] The concentration of antagonist required to provide a 50% decrease, relative to the response observed in the presence of capsaicin and without antagonist, is the IC50 for the antagonist, and is preferably below 1 micromolar, 100 nanomolar, 10 nanomolar or 1 nanomolar.

Usually IC50 stands for the concentration that gives 50% inhibition.

T1 sequence (Q8NER1 whole entry): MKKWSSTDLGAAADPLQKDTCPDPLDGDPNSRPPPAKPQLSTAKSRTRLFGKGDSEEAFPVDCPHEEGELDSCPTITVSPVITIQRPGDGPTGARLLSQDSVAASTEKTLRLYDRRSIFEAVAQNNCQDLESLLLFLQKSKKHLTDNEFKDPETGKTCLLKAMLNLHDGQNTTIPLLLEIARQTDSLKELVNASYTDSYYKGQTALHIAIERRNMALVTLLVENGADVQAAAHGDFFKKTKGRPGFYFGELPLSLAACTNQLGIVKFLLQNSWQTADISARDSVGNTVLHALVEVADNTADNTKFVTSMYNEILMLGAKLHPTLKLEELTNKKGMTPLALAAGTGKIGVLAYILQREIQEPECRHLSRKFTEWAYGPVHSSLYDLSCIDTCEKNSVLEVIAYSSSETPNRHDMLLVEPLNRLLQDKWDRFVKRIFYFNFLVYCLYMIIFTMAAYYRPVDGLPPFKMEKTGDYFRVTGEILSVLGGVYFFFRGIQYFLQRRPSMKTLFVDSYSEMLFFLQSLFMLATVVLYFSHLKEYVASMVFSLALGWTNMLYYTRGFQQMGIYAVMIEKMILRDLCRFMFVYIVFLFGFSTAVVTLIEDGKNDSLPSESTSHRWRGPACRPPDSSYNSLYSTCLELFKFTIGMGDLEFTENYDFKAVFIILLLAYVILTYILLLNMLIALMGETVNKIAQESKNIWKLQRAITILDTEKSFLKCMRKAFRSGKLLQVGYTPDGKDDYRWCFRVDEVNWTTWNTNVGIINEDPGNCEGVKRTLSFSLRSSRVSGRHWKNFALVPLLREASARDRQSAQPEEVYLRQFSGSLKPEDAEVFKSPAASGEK

Take `C[C@@H]1CN(c2ncccc2Cl)CCN1c1nc(Nc2cccc(F)c2)nc(N2CCOCC2)n1` (stereo in doubt) [Compound 104, {4-[4-(3-Chloro-pyridin-2-yl)-2-methyl-piperazin-1-yl]-6-morpholin-4-yl-[1,3,5]triazin-2-yl}-(3-fluoro-phenyl)-amine]: the IC50 is at most 1 µM.
For `CC(C)c1ccc(-c2nc(Nc3ccc(C(F)(F)F)cc3)nc(N3CCN(c4ncccc4Cl)C[C@H]3C)n2)cc1` (stereo in doubt) [Compound 114, [4-[4-(3-Chloro-pyridin-2-yl)-2-methyl-piperazin-1-yl]-6-(4-isopropyl-phenyl)-[1,3,5]triazin-2-yl]-(4-trifluoromethyl-phenyl)-amine] the value was at most 1 µM; for `C[C@@H]1CN(c2ncccc2Cl)CCN1c1cc(Nc2ccc(C(C)(C)C)cc2)ncn1` [Compound 1, (4-tert-Butyl-phenyl)-{6-[4-(3-chloro-pyridin-2-yl)-2-methyl-piperazin-1-yl]-pyrimidin-4-yl}-amine (R)], at most 1 µM; for `C[C@@H]1CN(c2ncccc2Cl)CCN1c1nc(Cl)nc(Nc2ccc(C(C)(C)C)cc2)n1` [Compound 2, (4-tert-Butyl-phenyl)-{4-chloro-6-[4-(3-chloro-pyridin-2-yl)-2-methyl-piperazin-1-yl]-[1,3,5]triazin-2-yl}-amine (R)], at most 1 µM.
`C[C@@H]1CN(c2ncccc2C(F)(F)F)CCN1c1nc(Cl)nc(Nc2ccc(C(C)(C)C)cc2)n1` [Compound 3, (4-tert-Butyl-phenyl)-{4-chloro-6-[2-methyl-4-(3-trifluoromethyl-pyridin-2-yl)-piperazin-1-yl]-[1,3,5]triazin-2-yl}-amine (R)]: the half-maximal inhibitory concentration (IC50) is at most 1 µM.
For `C[C@@H]1CN(c2ncccc2Cl)CCN1c1nc(Nc2ccc(C(C)(C)C)cc2)nc(OCc2ccccc2C(F)(F)F)n1` [Compound 5, (4-tert-Butyl-phenyl)-[4-[4-(3-chloro-pyridin-2-yl)-2-methyl-piperazin-1-yl]-6-(2-trifluoromethyl-benzyloxy)-[1,3,5]triazin-2-yl]-amine (R)] the value was at most 1 µM; for `C[C@@H]1CN(c2ncccc2C(F)(F)F)CCN1c1nc(Nc2ccc(C(C)(C)C)cc2)nc(OCc2ccccc2C(F)(F)F)n1` [Compound 6, (4-tert-Butyl-phenyl)-[4-[2-methyl-4-(3-trifluoromethyl-pyridin-2-yl)-piperazin-1-yl]-6-(2-trifluoromethyl-benzyloxy)-[1,3,5]triazin-2-yl]-amine (R)], at most 1 µM.
With `C[C@@H]1CN(c2ncccc2F)CCN1c1nc(Nc2ccc(C(C)(C)C)cc2)nc(OCc2ccccc2C(F)(F)F)n1` [Compound 7, (4-tert-Butyl-phenyl)-[4-[4-(3-fluoro-pyridin-2-yl)-2-methyl-piperazin-1-yl]-6-(2-trifluoromethyl-benzyloxy)-[1,3,5]triazin-2-yl]-amine (R)], the half-inhibitory concentration (IC50) is at most 1 µM.
For `C[C@@H]1CN(c2ncccc2Cl)CCN1c1nc(Nc2ccc(C(F)(F)F)cc2)nc(OCc2ccccc2C(F)(F)F)n1` [Compound 8, [4-[4-(3-Chloro-pyridin-2-yl)-2-methyl-piperazin-1-yl]-6-(2-trifluoromethyl-benzyloxy)-[1,3,5]triazin-2-yl]-(4-trifluoromethyl-phenyl)-amine (R)] the value was at most 1 µM; for `C[C@@H]1CN(c2ncccc2C(F)(F)F)CCN1c1nc(Nc2ccc(C(F)(F)F)cc2)nc(OCc2ccccc2C(F)(F)F)n1` [Compound 9], at most 1 µM; for `C[C@@H]1CN(c2ncccc2F)CCN1c1nc(Nc2ccc(C(F)(F)F)cc2)nc(OCc2ccccc2C(F)(F)F)n1` [Compound 10, [4-[4-(3-Fluoro-pyridin-2-yl)-2-methyl-piperazin-1-yl]-6-(2-trifluoromethyl-benzyloxy)-[1,3,5]triazin-2-yl]-(4-trifluoromethyl-phenyl)-amine (R)], at most 1 µM.
As to `CC(C)(C)c1ccc(Nc2nc(OCc3ccccc3C(F)(F)F)nc(N3CCN(c4ccccn4)CC3)n2)cc1` [Compound 11, (4-tert-Butyl-phenyl)-[4-(4-pyridin-2-yl-piperazin-1-yl)-6-(2-trifluoromethyl-benzyloxy)-[1,3,5]triazin-2-yl]-amine], the concentration for half-maximal inhibition (IC50) was at most 1 µM.
As to `COc1ccccc1N1CCN(c2nc(Nc3ccc(C(C)(C)C)cc3)nc(OCc3ccccc3C(F)(F)F)n2)CC1` [Compound 12, (4-tert-Butyl-phenyl)-[4-[4-(2-methoxy-phenyl)-piperazin-1-yl]-6-(2-trifluoromethyl-benzyloxy)-[1,3,5]triazin-2-yl]-amine], the IC50 is at most 1 µM.
For `C[C@H]1CN(c2ncccc2C(F)(F)F)CCN1c1nc(Cl)nc(Nc2ccc(C(F)(F)F)cc2)n1` [Compound 13, {4-Chloro-6-[2-methyl-4-(3-trifluoromethyl-pyridin-2-yl)-piperazin-1-yl]-[1,3,5]triazin-2-yl}-(4-trifluoromethyl-phenyl)-amine (S)], the IC50 is at most 1 µM.
For `C[C@H]1CN(c2ncccc2C(F)(F)F)CCN1c1nc(Nc2ccc(C(F)(F)F)cc2)nc(-c2ccc(C(F)(F)F)cc2)n1` [Compound 14, [4-[2-Methyl-4-(3-trifluoromethyl-pyridin-2-yl)-piperazin-1-yl]-6-(4-trifluoromethyl-phenyl)-[1,3,5]triazin-2-yl]-(4-trifluoromethyl-phenyl)-amine (S)] the value was at most 1 µM; for `CC(C)CCNc1nc(Nc2ccc(C(F)(F)F)cc2)nc(N2CCN(c3ncccc3C(F)(F)F)C[C@@H]2C)n1` [Compound 15, N-(3-Methyl-butyl)-6-[2-methyl-4-(3-trifluoromethyl-pyridin-2-yl)-piperazin-1-yl]-N′-(4-trifluoromethyl-phenyl)-[1,3,5]triazine-2,4-diamine (S)], at most 1 µM; for `C[C@H]1CN(c2ncccc2C(F)(F)F)CCN1c1nc(Nc2ccc(C(F)(F)F)cc2)nc(-c2ccccc2Cl)n1` [Compound 16, {4-(2-Chloro-phenyl)-6-[2-methyl-4-(3-trifluoromethyl-pyridin-2-yl)-piperazin-1-yl]-[1,3,5]triazin-2-yl}-(4-trifluoromethyl-phenyl)-amine (S)], at most 1 µM.
For `C[C@@H]1CN(c2ncccc2Cl)CCN1c1nc(Cl)cc(Nc2ccc(C(F)(F)F)cc2)n1` [Compound 17, {6-Chloro-2-[4-(3-chloro-pyridin-2-yl)-2-methyl-piperazin-1-yl]-pyrimidin-4-yl}-(4-trifluoromethyl-phenyl)-amine (R)] the value was at most 1 µM; for `C[C@@H]1CN(c2ncccc2Cl)CCN1c1nc(Nc2ccc(C(F)(F)F)cc2)nc(N(C)C)n1` [Compound 18, 6-[4-(3-Chloro-pyridin-2-yl)-2-methyl-piperazin-1-yl]-N,N-dimethyl-N′-(4-trifluoromethyl-phenyl)-[1,3,5]triazine-2,4-diamine (R)], at most 1 µM.
For `CCCCNc1nc(Nc2ccc(C(F)(F)F)cc2)nc(N2CCN(c3ncccc3Cl)C[C@H]2C)n1` [Compound 19, N-Butyl-6-[4-(3-chloro-pyridin-2-yl)-2-methyl-piperazin-1-yl]-N′-(4-trifluoromethyl-phenyl)-[1,3,5]triazine-2,4-diamine (R)] the value was at most 1 µM.
With `CN(C)c1nc(Nc2ccc(C(F)(F)F)cc2)nc(N2CCN(c3ncccc3C(F)(F)F)CC2)n1` [Compound 20, N,N-Dimethyl-N′-(4-trifluoromethyl-phenyl)-6-[4-(3-trifluoromethyl-pyridin-2-yl)-piperazin-1-yl]-[1,3,5]triazine-2,4-diamine], the IC50 is at most 1 µM.
